Experimental data taken from patent US11278550B2, “Compositions and methods for the treatment of Prader-Willi syndrome” (Duke University, priority 2016, dated 2022).

How the values were obtained:
maternal Snrpn-EGFP MEFs = test: High content screening / concentration response of Snrpn-EGFP unsilencing; format: cell-based, mouse; settings: mS-EGFP/p+ MEFs
Description: High content screenings of small molecules were performed as described in Huang, et al. Nature 481, 185-189 (2012). HCS comprises a 384-well high-content screen using primary mouse embryonic fibroblasts (MEFs) from m^S-EGFP/p^+, and searched for drug-like molecules that could unsilence the maternal S-EFGP allele. […] To perform the screen, primary MEFs were isolated from E12.5-14.5 embryos of m^S-EGFP/p^+ and cultured for 7 days in Dulbecco's modified Eagle's media supplemented with 10% fetal bovine serum, 100 Units/mL penicillin and 100 μg/mL streptomycin, at 37° C. and 5% CO2. One day before treatment with small molecules, 5,000 cells per well were plated onto 384-well plates. The cells were then treated with compounds (10 μM for 72 hours) from multiple small molecule libraries (FIG. 1f and FIG. 2). In total, 9,157 small molecules were screened in quadruplicate, normalizing values to vehicle-treatment (0.2% DMSO) (Table 1). The unsilencing of Snrpn-EGFP was determined three days after drug treatment. The immunofluorescence-processed fibroblasts were imaged for Hoechst and Alexa Fluor 488 fluorescence using a BD Pathway 855 high content imaging microscope. Antibody-enhanced Snrpn-EGPF fluorescence intensity was determined in drug-treated cells individually and normalized to cells treated with vehicle control. In order to identify potentially active compounds, an arbitrary cutoff of 125% was used where 100% indicates basal fluorescence in the vehicle-treated MEFs. Analysis was performed using Cell Profiler with custom macro and algorithms. Potential active drugs were defined as the increase in drug-mediated EGFP fluorescence consistently observed across quadruplicate wells and minimal or no cytotoxicity measured by Hoechst-stained nuclear structure (and the changes in total number of cells). After initial validation of all potential active drugs (e.g., to determine whether active compounds show inherent fluorescence, the wild-type fibroblasts were also treated), only effective hit compounds further validated in dose-response tests to determine relative efficacy (Emax) and potency (EC50). The dose-response results were analyzed by using Graphpad Prism (Graphpad Software). The calculated EC50 values (potencies) and estimated Emax (efficacy, Y-value top plateau) enabled comparative analyses of the relative potency and efficacy of the identified compounds.
Three days after drug treatment, the cells were fixed at 4% paraformaldehyde at room temperature for 10 min, followed by rinsing with 1× PBS. The cells were permeabilized with 0.5% Triton X-100 in 1× PBS at room temperature for 10 min, followed by blocking with 5% normal goat serum in 0.1% Triton X-100 in 1× PBS at room temperature for 30 minutes. Primary rabbit anti-GFP antibody (1:1000, Novus Biologicals cat. no. NB100-1770) was incubated at 4° C. overnight. The next day, the cells were rinsed with 1× PBS and incubated with goat anti-rabbit Alexa Fluor 488 (Invitrogen cat. no. A-11008) and Hoechst at room temperature. One hour after incubation, the cells were rinsed with 1× PBS and imaged for Hoechst and Alexa Fluor 488 fluorescence using a BD Pathway 855 high content imaging microscope.
It is not feasible to design a screen for noncoding RNA. Alternatively, SNRPN/Snprn is paternally expressed but maternally silenced in all human and mouse tissues. The allele-specific expression of human SNRPN is regulated by the PWS-IC, which also controls the expression of host transcripts for SnoRNAs, including the SNORD116 cluster between SNRPN and UBE3A. see Le Meur, E. et al., Dev. Biol. 286, 587-600 (2005). Thus, the Snrpn-EGFP fusion protein (hereafter S-EGFP) was used as a marker for high content screening (HCS). It was determined that small molecules that can unsilence S-EGFP would also be effective in reactivating the host transcript of SNORD116. […]

human PWS fibroblasts = test: Chromatin immunoprecipitation (ChIP-qPCR) of H3K9me2/H3K9me3; format: cell-based; settings: in words
Description: Histone methylations on the SNRPN locus in human fibroblasts were analyzed by chromatin immunoprecipitation assay (ChIP) using the protocol as previously reported (see Fulmer-Smentek et al., Human molecular genetics 10, 645-652 (2001)). ChIP assay was performed using ChIP-IT Express magnetic kit (Active Motif) according to the manufacturer's instructions with modification for the fixation and reverse-crosslinking steps. Briefly, native chromatin was prepared without fixation and enzymatic digestions to average 150-500 bp sized chromatin. 20 μg of chromatin was added to the specific antibodies (2 μg) or species control isotype antibodies for each immunoprecipitation reaction. The antibody-chromatin complexes were bound to protein G magnetic beads for recovering chromatin immunoprecipitates. RNase- and proteinase K-treated DNA was purified using PCR purification columns (Promega). DNA recovery was quantified by real time PCR performed on the LightCycler480 instrument (Roche) using SsoAdvanced Universal SYBR green Supermix (Biorad). Antibodies were anti-rabbit acetylated H3 (Millipore 06-599), anti-mouse monoclonal Histone H3 dimethyl K9 (Abcam 1220) and Histone H3 trimethyl K9 (Millipore, 07-442) antibodies. qPCR reactions were performed with the following cycling parameters: at 95° C./5 min followed by 40 cycles of 95° C./30 sec, 60° C./60 sec. Data was normalized to the total input.

PWS-IC = test: Bisulfite genomic sequencing of PWS-IC, human PWS cells; format: cell-based
Description: Genomic DNA was isolated from human PWS fibroblasts or mouse tissues. DNA (1 μg) was then treated by bisulfite using the Epi-Tect bisulfite kit (Qiagen), and 125 ng input DNA was used per PCR amplification. PCR products were sub-cloned into pGEM-T easy vector (Promega) and an average of 15 clones were sequenced. DNA sequencing results were analyzed using BISMA web-based analysis platform with a setting for individual clones with <95% bisulfite conversion and <90% sequence identity to be excluded in the analysis.

Compound | activation of S-EGFP (maternal Snrpn-EGFP MEFs) | level of H3K9me2 (and H3K9me3) in the PWS-IC (human PWS fibroblasts) | DNA methylation of the PWS-IC (PWS-IC)
COc1cc2nc(N3CCCN(C)CC3)nc(NC3CCN(Cc4ccccc4)CC3)c2cc1OC [BIX01294, reference compound] | did not have a substantial effect |  | 
O=C(CCCCCCC(=O)Nc1ccccc1)NO [vorinostat, suberoylanilide hydroxamic acid, reference compound] | did not have an effect |  | 
CCCC(CCC)C(=O)O [valproic acid, reference compound] | did not have an effect |  | 
C[S+](CC[C@H](N)C(=O)O)C[C@H]1O[C@@H](n2cnc3c(N)ncnc32)[C@H](O)[C@@H]1O (some centres unmarked) [S-adenosyl-methionine, reference compound] | did not have an effect |  | 
CC(/C=C/C(=O)NO)=C\[C@@H](C)C(=O)c1ccc(N(C)C)cc1 [trichostatin A, reference compound] | did not have an effect |  | 
Nc1ncn([C@H]2C[C@H](O)[C@@H](CO)O2)c(=O)n1 [5-Aza-dC, 5-aza deoxycytidine, reference compound] |  | reduced | significantly decreased
Nc1ccccc1NC(=O)c1ccc(CNC(=O)OCc2cccnc2)cc1 [entinostat, reference compound] | did not have an effect |  | 
